The values below come from publication PMC6321145 (Molecules, 2018).

Data set [1] deals with T1, Aβ1–42 (Homo sapiens, UniProt P05067).
T1 construct: Aβ1–42 (Sigma, St. Louis, MO, USA; counterion, NaOH) stock solution was prepared by dissolving Aβ1–42 peptide in ammonium hydroxide; purchased Sigma
As to the kind of experiment: Inhibition of Cu^2+-induced Aβ1–42 aggregation (ThT-binding assay). The format is biochemical. To be noted: [Aβ] = 20 μM, [Cu^2+] = 20 μM, [compound] = 40 μM; 37 °C, 24 h. The procedure:
To investigate the ability of compound 6b1 to inhibit Cu^2+-induced Aβ1–42 aggregation, the ThT-binding assay was performed.
Aβ was diluted in […] (pH 6.6) with […]. The mixture of the peptide (10 μL, 20 μM, final concentration) with or without copper (10 μL, 20 μM, final concentration) and the test compound (10 μL, 40 μM, final concentration) was incubated at 37 °C for 24 h. The 30 μL of the sample was diluted to a final volume of 200 μL with 50 mM glycine-NaOH buffer (pH 8.0) containing thioflavin T (5 μM). The detection method was the same as that of self-induced Aβ aggregation experiment.

In data set [2] the target is T1, Aβ1–42. As to the kind of experiment: Inhibition of self-induced Aβ1–42 aggregation (ThT fluorescence assay). The class given is biochemical. To be noted: for inhibition at 20 µM: inhibitor 20 μM, Aβ1–42 50 μM, ThT, 37 °C, 72 h, mean ± SD. The method, then: The formation and aggregation of Aβ1–42 in the brain leads to neurotoxicity in AD. In order to evaluate the activity of our new synthetic compounds to inhibit Aβ1–42 self-induced aggregation, the thioflavin (ThT) fluorescence assay was performed.
All ThT experiments were performed according to our previously published methods. Aβ1–42 (Sigma, St. Louis, MO, USA; counterion, NaOH) stock solution was prepared by dissolving Aβ1–42 peptide in ammonium hydroxide (1% v/v), and diluting with 20 mM phosphate buffer (pH 7.4) to 100 μM. The tested compounds were firstly dissolved in DMSO at a concentration of 10 mM, and then diluted with 20 mM phosphate buffer (pH 7.4) to 40 μM.
For the inhibition of self-induced Aβ1–42 aggregation. Aβ1–42 peptide (2 μL, 50 μM, final concentration) with the tested compound (2 μL, 20 μM, final concentration) or 20 mM phosphate buffer (2 μL) was incubated in 20 mM phosphate buffer (pH 7.4) at 37 °C for 72 h. After incubation, the samples were diluted to a final volume of 36 μL with 50 mM glycine-NaOH buffer (pH 8.5) containing 5 μM Thioflavin T. Fluorescence signal was measured (excitation wavelength 450 nm, emission wavelength 485 nm, and slit widths set to 5 nm) on a monochromator-based multimode microplate reader ([…] M1000, TECAN, Hombrechtikon, Switzerland), adapted for 384-well microtiter plates. […] Each compound was examined in triplicate.

Data set [3] is described as follows: Oxygen radical absorbance capacity with fluorescein (ORAC-FL) assay. The procedure:
Oxidative stress is another crucial event in AD pathogenesis. In order to determine antioxidant activities of our synthetic compounds, the oxygen radical absorbance capacity method with fluorescein (ORAC-FL) assay was performed. with Trolox (6-hydroxy-2,5,7,8-tetramethylchroman-2-carboxylic acid) as the standard, and their antioxidant activity was expressed as Trolox equivalents.
The antioxidant activities of the compounds in vitro were determined by the oxygen radical absorbance capacity fluorescein (ORAC-FL) assay. The tested compounds and (±)-6-hydroxy-2,5,7,8-tetramethylchroman-2-carboxylic acid (Trolox) were dissolved in DMSO at a concentration of 10 mM, and then diluted with 75 mM potassium phosphate buffer (pH 7.4) to 50 μM and 10 μM for use. The fluorescein (FL) stock solution (3.4 mM) was diluted with the same buffer to 136 nM. All the assays were conducted with 75 mM potassium phosphate bufffer (pH 7.4), and the final reaction mixture was 200 μL.
The mixture of compounds (or buffer) (20 μL) and fluorescein (FL, 120 μL) were incubated for 15 min at 37 °C in a black 96-well plate. Then 2,2′-azobis-(amidino-propane)-dihydrochloride (AAPH) solution (60 μL, 40 mM) was rapidly added to the reaction mixture. The fluorescence was recorded every 5 min for 240 min at 485 nm (excitation wavelength) and 535 nm (emission wavelength) (Varioskan Flash Multimode Reader, Thermo Scientific, Waltham, MA, USA), and each sample was prepared and measured for three times independently. […] The net AUC for a sample was calculated using the expression net AUC = AUCsample − AUCblank, The ORAC-FL value of each sample was calculated using the equation of net AUCsample/(AUCTrolox – AUCblank), which was expressed as Trolox equivalents.

Data set [4] relates to SH-SY5Y cells. Briefly: Cellular ROS detection (DCFH-DA) in SH-SY5Y cells treated with t-BuOOH. The format is cell-based, human. As to conditions: compound 2.5 μM; 0.1 mM t-BuOOH; compared with Trolox. The procedure: To further investigate their antioxidant activity in SH-SY5Y cells, cellular ROS detection assay based on dichlorofluorescein diacetate (DCFH-DA) was performed. with Trolox and N-acetyl-L-cysteine (NAC) as reference compounds.
SH-SY5Y cells were maintained in Dulbecco’s modified Eagle’s medium (DEME) and supplemented with 1 mM glutamine, 10% fetal calf serum, 100 U/mL penicillin, and 100 μg/mL streptomycin. The cultures were maintained at 37 °C in a humidified incubator containing 5% CO2 and were passaged twice weekly.
The antioxidant activity of the compounds in SH-SY5Y cells were tested with the fluorescent probe (2′,7′-dichlorofluorescein diacetate, DCFH-DA) as reported with some variation. SH-SY5Y cells were sub-cultured in 96-well plates at a seeding density of 1 × 10^4 cells per well for 24 h, then the medium was removed, the tested compounds (2.5 μM) was added and incubated for another 24 h at 37 °C. After that, the cells were washed with PBS and incubated with 5 μM DCFH-DA in PBS at 37 °C in 5% CO2 for 30 min. Then DCFH-DA was removed, the cells were washed three times and incubated with 0.1 mM t-BuOOH in PBS for 30 min. After the incubation, the cell fluorescence from each well was measured at 485 nm excitation and 535 nm emission with a monochromator based multimode microplate reader ([…] M1000).

The nature of data set [5]: Cytotoxicity on SH-SY5Y cells (MTT). The class given is cell-based, human. To be noted: human, SH-SY5Y neuroblastoma cells; MTT, 24 h; mean ± SEM of three measurements. The method, then:
The cytotoxicity of our synthesized compounds was examined in human neuroblastoma SH-SY5Y cells. The cell viability was determined by using methyl thiazolyl tetrazolium (MTT) colorimetry, the cells were treated with different concentrations of compounds (0–100 μM). The result is shown in the Supplementary Materials (Table S1).
The cytotoxicities of the compounds were evaluated using the MTT assay. SH-SY5Y cells were subcultured in 96-well plates at a seeding density of 1 × 10^4 cells per well. After 24 h, the medium was removed and treated with different concentrations of tested compounds for 24 h at 37 °C. The survival of cells was determined with MTT assay. Then 80 μL of medium and 20 μL of MTT (0.5 mg/mL, final concentration) were added to each well and incubated for another 4 h. After the removal of MTT, the formazan crystals were dissolved in DMSO. The amount of formazan was measured using a microculture plate reader at the wavelength of 570 nm. Each concentration was performed in triplicate.

The target of data set [6] is T2, Aβ1–42 fibrils (Homo sapiens, UniProt P05067).
T2 construct: Aβ1–42 (Sigma, St. Louis, MO, USA; counterion, NaOH) stock solution was prepared by dissolving Aβ1–42 peptide in ammonium hydroxide; purchased Sigma
As to the kind of experiment: TEM assay of Aβ1–42 fibrils. To be noted: compound 20 μM; 37 °C, 24 h. The class given is biochemical. The method, then: To further complement the ThT binding assay, A transmission electron microscopy (TEM) assay was employed to monitor and clarify the effect of compound 6b1 on Aβ1−42 aggregation.
The ability of compound 6b1 to disaggregate self-induced Aβ1–42 aggregation fibrils was also investigated. Aβ1–42 fibrils were prepared by incubating fresh Aβ1–42 for 24 h at 37 °C, and the test compound was added to the sample and incubated for another 24 h at 37 °C. Then the sample was analyzed by ThT binding assay and TEM assay.
Aβ1–42 peptide (Sigma) was dissolved in 20 mM phosphate buffer (pH 7.4) at 4 °C to 100 μM before use.
Aβ1–42 was incubated at 37 °C for 24 h. Then, 40 μM tested compound was added and incubated at 37 °C for another 24 h. The final concentrations of Aβ1–42 and the compounds were 50 μM and 20 μM, respectively. After incubation, aliquots (5 μL) of the samples were placed on a carbon-coated copper/rhodium grid for 2 min at room temperature. Each grid was stained with uranyl acetate (1%, 5 μL) for 2 min. Excess staining solution was removed and the specimen was transferred for imaging with transmission electron microscopy (JEOL JEM-1400, Tokyo, Japan).

T1 sequence (P05067 672-713): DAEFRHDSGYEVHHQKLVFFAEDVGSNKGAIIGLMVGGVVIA
T2 sequence (P05067 672-713): as above

Regarding `Oc1c(I)cc(Cl)c2cccnc12` [CQ, clioquinol], the “Inhibition of Cu^2+-induced Aβ aggregation” value in data set [1] stood at 83.6%.
Molecule `CCN(CC)CCCNc1cc(/C=C/c2ccc(N(CC)CC)cc2)nc2ccccc12` [Compound 6a1, (E)-N^1-(2-(4-(Diethylamino)styryl)quinolin-4-yl)-N^3,N^3-diethylpropane-1,3-diamine] came in with a melting point of 182.3 to 184 °C. In addition, the IC50 in data set [2] (ThT fluorescence method, mean ± SD of three experiments, read-out: IC50 against self-induced Aβ1–42 aggregation) is 7.8 ± 0.4 µM. In data set [2], testing at 20 µM gave an inhibition of 90.2 ± 1.3%. In addition, the ORAC in data set [3] (compound 1 μM) is reported as 5.92 ± 0.03 μmol of Trolox equivalents/μmol of tested compounds. Further, in data set [4], the “Antioxidant activity in SH-SY5Y cells (ROS generation, DCFH-DA fluorescence)” value (“Antioxidant activity in SH-SY5Y cells” below) is reported as “more antioxidant activity than Trolox”. Further, the IC50 at 24 h in data set [5] worked out at 189 µM.
`CCN(CC)CCCNc1cc(/C=C/c2ccc(N3CCOCC3)cc2)nc2ccccc12` [Compound 6a4, (E)-N^1,N^1-Diethyl-N^3-(2-(4-morpholinostyryl)quinolin-4-yl)propane-1,3-diamine] displayed a melting point of 172.5 to 174.3 °C. Also, in data set [2], the inhibition at 20 µM was determined as 87.9 ± 1.1%. Further, in data set [3] (compound 1 μM), the ORAC was 4.16 ± 0.04 μmol of Trolox equivalents/μmol of tested compounds. For the same molecule, in data set [3] (compound 5 μM), the ORAC is 4.52 ± 0.03 μmol of Trolox equivalents/μmol of tested compounds. In addition, the “Antioxidant activity in SH-SY5Y cells” value in data set [4] was “a little weaker antioxidant activity than Trolox”. This molecule yielded an IC50 at 24 h in data set [5] of 145.2 ± 0.9 µM.
The molecule `CN(C)CCCNc1cc(/C=C/c2c[nH]c3ccccc23)nc2ccccc12` [Compound 6b3, (E)-N^1-(2-(2-(1H-Indol-3-yl)vinyl)quinolin-4-yl)-N^3,N^3-dimethylpropane-1,3-diamine] gave a melting point of 168.2 to 169.5 °C. 20 µM produced 87.2 ± 2.1% inhibition in data set [2]. In data set [3] (compound 1 μM), the ORAC is given as 3.96 ± 0.08 μmol of Trolox equivalents/μmol of tested compounds. Besides, the ORAC in data set [3] (compound 5 μM) was 4.21 ± 0.08 μmol of Trolox equivalents/μmol of tested compounds. The “Antioxidant activity in SH-SY5Y cells” value in data set [4] is “a little weaker antioxidant activity than Trolox”. The same molecule yielded an IC50 at 24 h in data set [5] of 168.1 ± 0.2 µM.
In data set [2], `Oc1ccc(/C=C/c2cc(O)cc(O)c2)cc1` [Res, resveratrol, reference compound] gave an inhibition at 20 µM of 77.2 ± 1.1%. In data set [1], the “Inhibition of Cu^2+-induced Aβ aggregation” value stood at 71.2%. Further, the “TEM: Aβ1–42 fibril formation in presence of compound” value in data set [6] is “a few thick fibrils”.
